≈ marks a conversion by molar mass, not a printed value. Read-outs that look alike come from different tables or passages of the source.
Columns and labels:
[1] = test system: M. abscessus subsp. massiliense CCUG 48898T; test: MIC assay in 96-well plate format; assay type: cell-based; details: Mycobacteroides abscessus, culture collection reference strain
[2] = test system: M. abscessus subsp. bolletii M232; test: MIC assay in 96-well plate format; assay type: cell-based; details: Mycobacteroides abscessus; M. abscessus subsp. bolletii M232, clinical isolate
[3] = test system: M. abscessus subsp. abscessus K21; test: MIC assay in 96-well plate format; assay type: cell-based; details: Mycobacteroides abscessus; M. abscessus subsp. abscessus K21, clinical isolate, infection model
[4] = test system: M. intracellulare ATCC 13950; test: MIC assay in 96-well plate format; assay type: cell-based; details: Mycobacterium intracellulare, ATCC13950; M. intracellulare ATCC 13950, culture collection reference strain
[5] = test system: M. abscessus Bamboo RM4 (LeuS T327R); test: microbe, parasite or virus in culture; assay type: cell-based; details: Mycobacteroides abscessus
[6] = test system: M. abscessus Bamboo; assay type: cell-based
[7] = Kinetic aqueous solubility assay (CLND); assay type: physicochemical; details: aqueous buffer, kinetic from dmso stock, pH 7.4 phosphate-buffered saline
Procedure: The aqueous solubility of test compounds was measured using an in-house method utilizing quantification via chemiluminescent nitrogen detection (CLND): 5 μl of 10 mM DMSO stock solution was diluted to 100 μl with pH 7.4 phosphate-buffered saline, equilibrated for 1 h at room temperature, and filtered through Millipore Multiscreen HTS-PCF filter plates (MSSL BPC). The eluent is quantified by a suitably calibrated flow injection chemiluminescent nitrogen detection (CLND or CAD). This assay has a dynamic range between the lower detection limit of 1 and 500 μM, governed by the protocol’s 1:20 dilution into pH 7.4 phosphate buffer solution from nominal 10 mM DMSO stock.

[8] = ChromlogD assay; assay type: physicochemical; details: reversed phase HPLC column (Gemini NX C18), pH 7.4
Procedure: The Chromatographic Hydrophobicity Index (CHI) values are measured using reversed phase high-performance liquid chromatography (HPLC) column (50 by 2 mm […] Gemini NX C18, Phenomenex, UK) with fast acetonitrile gradient at starting mobile phase of pHs 2, 7.4, and 10.5. CHI values are derived directly from the gradient retention times by using a calibration line obtained for standard compounds. The CHI value approximates to the volume percent organic concentration when the compound elutes. CHI is linearly transformed into ChromlogD by least-square fitting of experimental CHI values to calculated ClogP values for over 20,000 research compounds using the following formula: ChromlogD = (0.0857 × CHI) − 2.00. The average error of the assay is ±3 CHI unit or ±0.25 ChromlogD.

[9] = Mouse pharmacokinetics, intravenous administration; assay type: in vivo
Procedure: (§1) For pharmacokinetic studies, CD-1 male mice (22 to 25 g) were used for intravenous route and C57BL/6 female mice (18 to 20 g) were used for oral route. All animal studies were ethically reviewed and carried out in accordance with European Directive 2010/63/EU and the GSK policy on the care, welfare, and treatment of animals.
(§2) EC/11770 was administered by intravenous route at 1 mg/kg single dose in saline and by oral gavage at 1 mg/kg and 10 mg/kg single doses in 1% methyl cellulose (1% MC). Aliquots of 20 μl of blood were taken from the lateral tail vein by puncture from each mouse (n = 3 per route and dose) at 5, 15, and 30 min 1, 2, 4, 6, 8, and 24 h postdose for intravenous route and at 15, 30, and 45 min 1, 2, 4, 6, 8, and 24 h postdose for oral route. The blood aliquots were mixed with 40 μl of water and stored at −80°C prior to analysis. The samples were processed by protein precipitation: aliquots of 20 μl were mixed with acetonitrile/methanol (80:20 vol/vol) and then filtered in 0.45 μm well-plates (hydrophobic polytetrafluorethylene [PTFE], Millipore). The filtrates were analyzed by UPLC-MS/MS for the establishment of compound concentration. The ultraperformance liquid chromatography (UPLC)-MS/MS system included a UPLC Acquity (Waters) and an API4000 mass spec. (AB Sciex). A volume of 7.5 μl of sample was injected into the system, with an UPLC solvent gradient of 2 min and with a positive multiple reaction monitoring (MRM) mass detection mode.
(§3) Pharmacokinetic analysis was performed by noncompartmental data analysis (NCA) with Phoenix WinNonlin 6.3 (Pharsight, Certara L.P), and supplementary analysis was performed with GraphPad Prism 6 (GraphPad Software, Inc.).

[10] = Mouse pharmacokinetics, oral administration; assay type: in vivo; details: for AUC: female, C57BL/6, whole blood
Procedure: as §1, §2, §3

[11] = test system: M. abscessus subsp. abscessus K21; test: M. abscessus mouse infection model; assay type: in vivo; details: NOD SCID mice, intranasal infection, 10 mg/kg orally once daily for 10 days, day 11
Procedure: In vivo efficacy determinations were carried out as described previously, using 8-week-old female NOD.CB17-Prkdc^scid/NCrCrl (NOD SCID) mice (Charles River Laboratories) and the M. abscessus subsp. abscessus K21 strain ([38]). Briefly, anesthetized animals were infected by intranasal delivery of ∼10^6 CFU of M. abscessus subsp. abscessus K21. Acute infection was achieved within 1 day. Drugs or the vehicle control were administered to NOD SCID mice once daily for 10 consecutive days by oral gavage, starting from 1 day postinfection. Clarithromycin was formulated in 0.4% methyl cellulose-sterile water and administered at a dose of 250 mg/kg. EC/11770 was formulated in 0.4% methyl cellulose-sterile water and administered at 10 mg/kg. All mice were euthanized 24 h after the last dose (11 days postinfection), and their lungs and spleen were aseptically removed prior to homogenization. The bacterial load in these organs was determined by plating serial dilutions of the organ homogenates onto Middlebrook 7H11 agar (BD Difco) supplemented with 0.2% (vol/vol) glycerol and 10% (vol/vol) oleic acid-albumin-dextrose-catalase (OADC). The agar plates were incubated for 5 days at 37°C prior to counting of colonies. […]

[12] = mouse, oral 10 mg/kg, average (SD)

CC(C)(O)COc1ccc(Br)c2c1B(O)O[C@@H]2CN [EC/11770]
MIC [1]: 0.71 µM (≈ 0.234 µg/mL)
MIC [2]: 0.67 µM (≈ 0.221 µg/mL)
MIC [3]: 0.6 µM (≈ 0.198 µg/mL)
MIC [4]: 0.37 µM (≈ 0.122 µg/mL)
MIC [5]: > 100 µM
frequency of resistance [6]: 3.9 × 10^−8 /CFU
solubility at 1 h [7]: 349 µM (≈ 115 µg/mL)
chromatographic logD [8]: 0.97
half-life ([9]; male, CD-1, whole blood, mouse, intravenous 1 mg/kg, average (SD)): 5.3 h
Vd ([9]; male, CD-1, whole blood, mouse, intravenous 1 mg/kg, average (SD), read-out: Vss): 2.4 L/kg
AUC(0-inf) ([9]; male, CD-1, mouse, intravenous 1 mg/kg, whole blood, average (SD)): 3340 ng·h/mL
in vivo clearance as share of liver blood flow in mice ([9]; mouse, intravenous 1 mg/kg, liver blood flow 90 to 126 ml/min/kg): approximately 5%
clearance ([9]; whole blood, mouse (CD-1 male), intravenous 1 mg/kg in saline, average (SD), read-out: In vivo CL): 5 mL/min/kg
AUC ([10]; mouse, oral 1 mg/kg, average (SD), read-out: AUC0–24_1 mg/kg): 3560 ng·h/mL
AUC ([10]; mouse, oral 10 mg/kg, average (SD), read-out: AUC0–24_10 mg/kg): 40500 ng·h/mL
Cmax_1 mg/kg ([10]; mouse (C57BL/6 female), oral 1 mg/kg, average (SD)): 341 (51) ng/ml
%F_1 mg/kg ([10]; mouse, oral 1 mg/kg): 100%
DNAUC0–24_1 mg/kg ([10]; mouse, oral 1 mg/kg, average (SD)): 3,556 (179) ng h/ml per mg/kg
Tmax_1 mg/kg ([10]; mouse, oral 1 mg/kg, range of values): 1.0−2.0 h
%F_10 mg/kg ([10]; mouse, oral 10 mg/kg): 100%
time above M. abscessus biofilm MIC ([10]; mouse, oral 10 mg/kg): approximately 60%
time above MIC in M. abscessus planktonic cultures ([10]; mouse, oral 10 mg/kg): 100%
Cmax_10 mg/kg [10, 12]: 4,393 (1,260) ng/ml
DNAUC0–24_10 mg/kg [10, 12]: 4,053 (908) ng h/ml per mg/kg
Tmax_10 mg/kg ([10]; mouse, oral 10 mg/kg, range of values): 0.75−2.0 h
reduction in lung CFU [11]: 1.5 log

From PMC8092876, “A Leucyl-tRNA Synthetase Inhibitor with Broad-Spectrum Antimycobacterial Activity” (Antimicrobial Agents and Chemotherapy, 2021)
